Reference: patent US20060094013A1, “Salt-inducible kinases 2 and use thereof” (priority 2002, published 2006)

Experiments:
[1] = tested on: CRE-suppressing activity of SIK; assay: CRE activity in cells with PKA and SIK, peptide bound to the GFPC carrier; format: cell-based; details: peptide bound to C-terminus of GFP; PKA and SIK present
Text: GFPC is a C-terminus binding-type green fluorescent protein. GFPC is used as a peptide carrier, wherein a peptide of interest binds to the C-terminus of GFP. […] The grey one is CRE activity obtained when both PKA and SIK exist.

[2] = target: T1, SIK (Mus musculus, UniProt Q8CFH6); assay: Phosphorylating activity of GST-SIK2 on Syntide 2 in the presence of a p300 peptide (method of Lin et al.); format: biochemical; details: GST-SIK2 expressed in COS-7 cells
T1 construct: the full-length cDNA in the protein translation region of SIK2 was amplified by the RT-PCR method; made in house; host or cells: COS-7
Experimental: It was studied whether or not a peptide p300 is phosphorylated by SIK when serine at position 89 in p300 is substituted with alanine (S89A). Moreover, it was also studied whether or not the peptide p300 [84-93 (S89A)] can inhibit the phosphorylating activity of SIK. When the activity of SIK2 was measured by the method of Lin et al., a DMSO solution containing 5% DMSO (dimethyl sulfoxide) and staurosporine was added. SIK2 was allowed to express in the form of a GST binding form in COS-7 cells, and it was then purified using GST-Mirospin kit from Amersham Pharmacia.
The left lane and the central lane show the results regarding a synthetic substrate (Syntide 2) phosphorylated by SIK.

[3] = tested on: SIK; assay: Immunostaining of dexamethasone-induced SIK in 3T3-L1 cells with antibodies specific for the phosphorylation state; format: cell-based
Experimental: 3T3-L1 cells were inoculated on 96-well plates, and the cells were cultured until they became confluent. The medium placed in such a plate was DMEM/10% FCS. The culture was carried out at 37° C. in 5% CO2. Thereafter, dexamethasone was added to each of the plates, thereby resulting in a concentration of dexamethasone of 1 μM, so that SIK was induced. After 1 hour had passed after the induction, an SIK inhibitor, staurosporine, was added to the plates, thereby resulting in concentrations of 10, 100, and 1,000 nM. Thereafter, the culture was further carried out for 1 hour. […] Subsequently, the cells were added to PBS containing 4% paraformaldehyde, and the mixture was then left at room temperature for 15 minutes, so that the cells were immobilized. Thereafter, the cells were washed with PBS 4 times, and they were then allowed to react with a blocking solution obtained by dissolving 1% skimmed milk in TBST (TBS containing 0.1% Tween 20). Subsequently, 100 μl of antiserum (500 times diluted) containing an antibody binding to SIK1 wherein serine at position 577 is phosphorylated, an antibody binding to SIK1 wherein threonine at position 182 and serine at position 186 are phosphorylated, an anti-SIK antibody, or an antibody binding to SIK1 wherein serine at position 577 is not phosphorylated, was added to the same above blocking solution. The obtained mixture was reacted overnight. After completion of the reaction overnight, an unreacted antibody portion was eliminated by washing with PBS 4 times. A solution obtained by 1,000 times diluting an HRP-labeled anti-rabbit IgG secondary antibody was added to a reaction solution obtained by dissolving 1% skimmed milk in TBS, and the mixture was then reacted at room temperature for 2 hours. Thereafter, the resultant product was washed with PBS 4 times. The antigen-antibody reaction was visualized using Konica Immuno Stain HRP reagent (manufactured by Konica).

[4] = target: T2, mouse SIK2 (Mus musculus, UniProt Q8CFH6); assay: Protein-phosphorylating activity of purified GST-mSIK2 (auto-phosphorylation and GST-Syntide 2 phosphorylation, 32P, SDS-PAGE); format: biochemical
T2 construct: the full-length cDNA in the protein translation region of SIK2 was amplified by the RT-PCR method; made in house; host or cells: COS-7
Experimental: The obtained GST-mSIK2 was mixed with 1 μl of GST-Syntide 2 (Lin et al., as describe above) and [^32P]-[…] (37 kBq; manufactured by ICN) in the presence of a 50 mM Tris-HCl buffer solution (pH 8.0) and 10 mM MnCl2 (20 μl in total). The mixture was allowed to react at 30° C. for 1 hour. The reaction was then terminated by adding 10 μl of an SDS-sample buffer and heating at 100° C. for 5 minutes. 10 μl of the reacted sample was separated using 15% SDS-PAGE, and the SDS-PAGE gel was then dried. The intake of ^32P was detected by exposing it to light for 30 minutes, using an X-ray film (MS-film; manufactured by Kodac). […] For comparison purpose, GST-rat SIK1 and GST-rat SIK1 (K56M) were subjected to the same experiment. Consequently, the same results were obtained.
A GST-mSIK2 protein that was allowed to express in COS-7 cells and then purified was mixed with DMSO solutions containing 5% DMSO and 5% each of 1, 10, 100 nM staurosporine (Sigma) ina reaction system in the test tube used in Example 3. Thereafter, phosphorylating activity was detected by the SDS-PAGE method, so as to evaluate the inhibition of enzyme activity of mouse SIK2 by staurosporine. […] The auto-phosphorylating activity and GST-Syntide 2-phosphorylating activity of GST-mSIK2 were approximately 30% inhibited even by the single use of DMSO. […] It was inhibited by 1 nM staurosporine until the residual activity became approximately 20%. By 10 nM and 100 nM staurosporines, it was almost 100% inhibited.

[5] = tested on: Gal-CREB (full-length); assay: Gal4-CREB (full-length) luciferase reporter assay; format: cell-based; details: 50 ng/ml
Experimental: (§1) In addition, CREB was introduced into the N-terminal side of the Gal4 protein of budding yeast (Gal4 DNA binding domain; Gal4DB). Using a plasmid wherein a reporter gene (fire fly luciferase) was introduced downstream of a promoter having a sequence consisting of 5 consecutive Gal4-binding sequences, the ability of DB to transcribe CREB without the medium of CRE was analyzed. In the case of a Gal-CREB (full-length) system, since it has a bZIP domain, the transcription was inhibited by SIK2 and TNFα (refer to FIG. 9B).

[6] = tested on: Gal4-CREB(-bZIP); assay: Gal4-CREB(-bZIP) luciferase reporter assay; format: cell-based; details: 50 ng/ml
Experimental: as §1

[7] = tested on: CRE; assay: CRE luciferase reporter assay in precursor fat cells 3T3-L1; format: cell-based; details: 50 ng/ml; SIK2 not highly expressed
Experimental: For the purpose of detecting the CRE transcription-suppressing activity of SIK2, using Lipofectoamin 200 reagent (2 μl; manufactured by Invitrogen), 200 ng each of pTarget-SIK2 and pTarget-SIK2 (K49M), together with an expression vector (pTAL-CRE; 200 ng; manufactured by Clontech) in which a luciferase gene is located under the control of CRE, were introduced into precursor fat cells 3T3-L1. Moreover, mSIK2 (S587A) having a destroyed PKA phosphorylated portion, which was predicted to exist in mouse SIK2 domain 3 from the findings regarding rat SIK1, was introduced therein, using oligo DNA represented by SEQ ID NO: 16.
In the thus produced mSIK2 (S587A), serine at position 587 was substituted with alanine with respect to the full-length SIK2. For correction of introduction efficiency, a vector (pRL-SC40; 30 ng; manufactured by Promega) that allows luciferase derived from Renilla to express under an SV40 promoter was co-introduced therein. 16 hours later, the cells were stimulated with forskolin (50 μM) for 6 hours, so as to activate CRE. Thereafter, the cells were recovered, and the expression level of a reporter gene was analyzed using Dual Luciferase Assay kit (manufactured by Promega).
The corrected pTAL-CRE-derived activity was divided by the activity derived from pTAL, so as to obtain a specific activity derived from CRE. […]

[8] = tested on: SIK2 gene; assay: SIK2 mRNA level after incubation with hormones (Northern blot); format: cell-based; details: used singly, 2 hours; insulin 1 μg/ml, cAMP 1 mM, dexamethasone 1 μM
Experimental: The SIK2 gene was incubated with each of these hormones, and with the mixture consisting of the 3 types of hormones, for 2 hours. Thereafter, the mRNA level of SIK2 was measured. […] The measurement was carried out by the Northern blot analysis using cDNA probes.

[9] = 10, 100, 1,000 nM staurosporine

T2 sequence (Q8CFH6 whole entry): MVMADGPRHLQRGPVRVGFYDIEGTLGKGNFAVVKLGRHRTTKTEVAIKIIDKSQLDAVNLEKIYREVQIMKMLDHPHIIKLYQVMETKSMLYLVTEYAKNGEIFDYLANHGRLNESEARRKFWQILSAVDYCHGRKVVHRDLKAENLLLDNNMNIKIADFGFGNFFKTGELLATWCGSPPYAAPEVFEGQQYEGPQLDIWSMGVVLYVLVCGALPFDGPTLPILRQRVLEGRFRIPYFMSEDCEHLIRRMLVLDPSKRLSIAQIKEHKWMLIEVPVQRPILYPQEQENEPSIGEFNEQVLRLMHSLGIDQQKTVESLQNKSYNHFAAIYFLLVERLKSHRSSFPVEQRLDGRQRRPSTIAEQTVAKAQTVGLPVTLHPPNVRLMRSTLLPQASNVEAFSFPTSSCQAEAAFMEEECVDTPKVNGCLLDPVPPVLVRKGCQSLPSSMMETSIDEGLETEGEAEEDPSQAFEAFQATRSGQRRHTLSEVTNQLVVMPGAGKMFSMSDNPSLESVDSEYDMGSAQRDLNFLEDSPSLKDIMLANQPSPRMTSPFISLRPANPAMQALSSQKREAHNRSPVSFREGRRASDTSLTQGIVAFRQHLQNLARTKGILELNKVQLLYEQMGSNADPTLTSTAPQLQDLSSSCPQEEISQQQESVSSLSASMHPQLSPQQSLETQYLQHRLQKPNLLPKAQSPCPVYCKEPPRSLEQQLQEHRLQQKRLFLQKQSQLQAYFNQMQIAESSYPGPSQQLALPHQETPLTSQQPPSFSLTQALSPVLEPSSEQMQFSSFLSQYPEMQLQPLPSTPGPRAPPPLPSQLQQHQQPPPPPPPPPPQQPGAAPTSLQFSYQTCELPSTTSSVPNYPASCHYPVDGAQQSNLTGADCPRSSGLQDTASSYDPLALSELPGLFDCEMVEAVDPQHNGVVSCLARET
T1 sequence (Q8CFH6 whole entry): as above

Molecule: p300 [84-93 (S89A)]: peptide p300 residues 84-93 with serine at position 89 substituted with alanine; bound to GFPC carrier in the cell test (LLRSGASPNL)
- effect on CRE-suppressing activity of SIK in cells [1]: inhibits the CRE-suppressing activity of SIK in cells
- effect on enzyme activity of SIK (Syntide 2 phosphorylation) [2]: inhibits the enzyme activity of SIK

Molecule: CN[C@@H]1C[C@H]2O[C@@](C)([C@@H]1OC)n1c3ccccc3c3c4c(c5c6ccccc6n2c5c31)C(=O)NC4 [staurosporine]
- reaction of anti-phosphorylation Ser577 antibody with SIK ([3]; 10 nM staurosporine, 1 hour): significantly decreased
- reaction of anti-phosphorylation Thr182-Ser186 antibody with SIK ([3]; 10 nM staurosporine, 1 hour): significantly decreased
- reaction of SIK with anti-SIK1 antibody [3, 9]: not significantly decreased
- reactivity of antibody binding to SIK1 wherein serine at position 577 is not phosphorylated [3, 9]: increased depending on the concentration of staurosporine
- residual phosphorylating activity of SIK2 ([4]; 1 nM staurosporine in 5% DMSO solution): approximately 20%
- inhibition at 0.01 µM ([4]; 10 nM staurosporine): ~100%
- inhibition at 0.1 µM ([4]; 100 nM staurosporine): ~100%
- concentration dependence of inhibition of phosphorylating activity of SIK2 ([4]; 1, 10, 100 nM): concentration-dependently inhibited

Molecule: TNFα
- effect on transcription in Gal-CREB (full-length) system [5]: inhibited
- effect on transcription in Gal4-CREB(-bZIP) system [6]: suppressed
- effect on activation of CRE due to PKA [7]: sufficiently suppressed the activation of CRE due to PKA

Molecule: C[S+](C)[O-] [DMSO, dimethyl sulfoxide]
- inhibition of auto-phosphorylating activity and GST-Syntide 2-phosphorylating activity of GST-mSIK2 ([4]; single use of DMSO (5% DMSO)): approximately 30%

Molecule: insulin
- effect on transcription of the SIK2 gene (mRNA level) [8]: promoted the transcription of the SIK2 gene
